Patent US4513001A, “β-Adrenergic 1-[1-benzimidazolyl]-N-[2-(4-hydroxy-3-methoxy-phenyl)-2-hydroxy-ethyl]- 3-amino butane and salts and hydrates thereof” (priority 1982, dated 1985)
pEC50: −log10 of the molar value. “Also recorded” adds a separate entry of the source. Where two headings read alike, the source gives them in different places.

Key:
[1] = test system: isolated trachea preparation of the guinea pig; assay: Relaxant activity on isolated tracheal muscle in vitro
Experimental: This activity was studied on an isolated trachea preparation of the guinea pig (chain of tracheal rings, according to CASTILLO and BEER. Journ. Pharmacol. Exp. Ther. 1947 90 104-109), kept alive in a KREBS solution. The effect of cumulative doses on the pressure of the preparation was recorded.
The activity of the substance was expressed by the value of the molar CD50 (decontracting concentration 50=concentration giving 50% of maximum relaxation), of which the negative log. is the value pD2, and by the intrinsic activity corresponding to maximum effect.
These values were determined in parallel for the compound A and Salbutamol, on 6 preparations for each.

histamine bronchospasm [2] = assay: Bronchodilator activity in vivo, anesthetized guinea pig, intravenous (inhibition of histamine bronchospasm, KONZETT); conditions: for % inhibition in time: i.v.
Experimental: (§1) 1.2.1 In the anesthesized guinea pig (method of KONZETT. Arch. Exp. Pathol. Pharmakol. 1940 195 71-74)
(§2) A bronchospasm was caused by intravenous histamine injection. The bronchodilator activity was shown by partial or total inhibition of this spasm.
The product studied was administered intravenously or intraduodenaly and histamine injected then at different times to follow the delay in appearance and the duration of the inhibiting effect of the treatment. […]

histamine bronchospasm [3] = assay: Bronchodilator activity in vivo, anesthetized guinea pig, intraduodenal (inhibition of histamine bronchospasm, KONZETT)
Experimental: as §1, §2
The product studied was administered intravenously or intraduodenaly and histamine injected then at different times to follow the delay in appearance and the duration of the inhibiting effect of the treatment.
The results below are the averages of the values obtained in 10 animals.

histamine bronchospasm [4] = assay: Bronchodilator activity in vivo, anesthetized dog, intraduodenal (intratracheal pressure, histamine bronchospasm)
Experimental: 1.2.2. In the anesthesized dog (recording of the intratracheal pressure)
A bronchospasm was caused by intravenous injection and histamine. The bronchodilator activity was shown by partial or total inhibition of this spasm.
The products studied were administered intraduodenally and the histamine injected then at various times to follow the effect of the treatment.
The results borne in the table below are the averages of the values obtained in 3 animals for each product.

rat uterus preparation = assay: Uterus relaxing activity in vitro; conditions: for pEC50: Rattus norvegicus, 7 preparations, read-out: CE50 (effective concentration 50, inhibiting by 50% the control contraction)
Description: This activity was investigated on a rat uterus preparation, put into estrus by cutaneous injection of oestradiol benzoate. The uterine horns were kept alive in a RINGER-LOCKE solution, modified by GADDUM and VOGT.
Their activity is expressed by the value of the molar CE50 (effective concentration 50, inhibiting by 50% the control contraction induced by the contracting agent).
Each CE50 indicated below was obtained from the results of 7 preparations.

[5] = test system: isolated right atrium preparation of the guinea pig; assay: Activity on the heart rate in vitro, isolated right atrium; conditions: for Heart rate, maximum: basal 209 (Compound A), 202 (Salbutamol); for Tachycardiac activity in vitro (comparison with Salbutamol): sulphate, dihydrate
Experimental: This action was studied on an isolated right atrium preparation of the guinea pig kept alive in a RINGER solution. The effect of cumulative doses on the heart rate was recorded. The results below are the averages of 6 preparations of the compound A, of 4 for Salbutamol

[6] = test system: heart rate and mean aortic pressure; assay: Heart rate and mean aortic pressure of the anesthetised dog, intraduodenal; format: in vivo; conditions: for Heart rate, maximum cumulative effect / Average aortic pressure, maximum cumulative effect: intraduodenal
Experimental: 3.1.1. Activity on the heart rate and on the mean aortic pressure of the anesthetisied dog
The activity of the compound A and of Salbutamol was studied on 2 batches of 3 dogs per product: one in spontaneous respiration, the other in artificial respiration; the two substances were administered intraduodenally at 3 doses: 0.008-0.025 and 0.08 mg/kg.

guinea pig trachea = assay: β-stimulant specificity: guinea pig trachea before and after propranolol; conditions: for pEC50: Cavia porcellus, 6 preparations
Description: respiratory (guinea pig trachea, in vitro)
cardiovascular (heart rate of the dog, in vivo) by the antagonistic effect of a β-blocking product.

SMILES: COc1cc(C(O)CNC(C)CCn2cnc3ccccc32)ccc1O (centres unmarked) [Compound A, 1-[1-benzimidazolyl]-N-[2-(4-hydroxy-3-methoxy-phenyl)2-hydroxy-ethyl]3-amino butane basic sulphate, dihydrate]
- Maximum response (decontraction) ([1]; 6 preparations): 390 mg
- Emax ([1]; Cavia porcellus, 6 preparations, Salbutamol 1.00, read-out: Intrinsic activity): 109%
- pEC50 ([1]; Cavia porcellus, 6 preparations, read-out: CD50 (decontracting concentration 50, concentration giving 50% of maximum relaxation)): 7.15
- EC50 ([1]; Cavia porcellus, negative log of molar CD50, 6 preparations, read-out: pD2 (converted)): 70.8 nM
- Activity on the tracheal muscle (comparison with Salbutamol) ([1]; in vitro, in words): very close to that of Salbutamol
- % inhibition in time (histamine bronchospasm [2]; 0.08 μg base/kg, 1 min): 1%
- % inhibition in time (histamine bronchospasm [2]; 0.08 μg base/kg, 5 min): 1%
- % inhibition in time (histamine bronchospasm [2]; 0.08 μg base/kg, 10 min): 0%
- % inhibition in time (histamine bronchospasm [2]; 0.08 μg base/kg, 15 min): 0%
- % inhibition in time (histamine bronchospasm [2]; 0.25 μg base/kg, 1 min): 9%
- % inhibition in time (histamine bronchospasm [2]; 0.25 μg base/kg, 5 min): 1%
- % inhibition in time (histamine bronchospasm [2]; 0.25 μg base/kg, 10 min): 0%
- % inhibition in time (histamine bronchospasm [2]; 0.25 μg base/kg, 15 min): 0%
- % inhibition in time (histamine bronchospasm [2]; 0.8 μg base/kg, 1 min): 36%
- % inhibition in time (histamine bronchospasm [2]; 0.8 μg base/kg, 5 min): 3%
- % inhibition in time (histamine bronchospasm [2]; 0.8 μg base/kg, 10 min): 2%
- % inhibition in time (histamine bronchospasm [2]; 0.8 μg base/kg, 15 min): 3%
- % inhibition in time (histamine bronchospasm [2]; 2.5 μg base/kg, 1 min): 66%
- % inhibition in time (histamine bronchospasm [2]; 2.5 μg base/kg, 5 min): 13%
- % inhibition in time (histamine bronchospasm [2]; 2.5 μg base/kg, 10 min): 8%
- % inhibition in time (histamine bronchospasm [2]; 2.5 μg base/kg, 15 min): 8%
- % inhibition in time (histamine bronchospasm [2]; 8 μg base/kg, 1 min): 73%
- % inhibition in time (histamine bronchospasm [2]; 8 μg base/kg, 5 min): 17%
- % inhibition in time (histamine bronchospasm [2]; 8 μg base/kg, 10 min): 12%
- % inhibition in time (histamine bronchospasm [2]; 8 μg base/kg, 15 min): 8%
- % inhibition in time (histamine bronchospasm [2]; 25 μg base/kg, 1 min): 92%
- % inhibition in time (histamine bronchospasm [2]; 25 μg base/kg, 5 min): 52%
- % inhibition in time (histamine bronchospasm [2]; 25 μg base/kg, 10 min): 38%
- % inhibition in time (histamine bronchospasm [2]; 25 μg base/kg, 15 min): 28%
- % inhibition in time (histamine bronchospasm [2]; 84 μg base/kg, 1 min): 92%
- % inhibition in time (histamine bronchospasm [2]; 84 μg base/kg, 5 min): 80%
- % inhibition in time (histamine bronchospasm [2]; 84 μg base/kg, 10 min): 70%
- % inhibition in time (histamine bronchospasm [2]; 84 μg base/kg, 15 min): 63%
- % inhibition in time (histamine bronchospasm [2]; 84 μg base/kg, 30 min): 51%
- % inhibition in time (histamine bronchospasm [2]; 84 μg base/kg, 45 min): 36%
- % inhibition in time (histamine bronchospasm [2]; 84 μg base/kg, 60 min): 21%
- Bronchodilator activity (comparison with Salbutamol) (histamine bronchospasm [2]; intravenous, in words): activity of the same order, although very slightly less for compound A at low doses; at the highest dose, the effect is intense and lasting, the compound A had an activity at least equal to that of Salbutamol
- % inhibition in time (histamine bronchospasm [3]; 0.25 mg base/kg, 1 min): 11%
- % inhibition in time (histamine bronchospasm [3]; 0.25 mg base/kg, 5 min): 27%
- % inhibition in time (histamine bronchospasm [3]; 0.25 mg base/kg, 15 min): 26%
- % inhibition in time (histamine bronchospasm [3]; 0.25 mg base/kg, 30 min): 26%
- % inhibition in time (histamine bronchospasm [3]; 0.25 mg base/kg, 45 min): 19%
- % inhibition in time (histamine bronchospasm [3]; 0.25 mg base/kg, 60 min): 13%
- % inhibition in time (histamine bronchospasm [3]; 0.25 mg base/kg, 90 min): 9%
- % inhibition in time (histamine bronchospasm [3]; 0.8 mg base/kg, 1 min): 16%
- % inhibition in time (histamine bronchospasm [3]; 0.8 mg base/kg, 5 min): 60%
- % inhibition in time (histamine bronchospasm [3]; 0.8 mg base/kg, 15 min): 61%
- % inhibition in time (histamine bronchospasm [3]; 0.8 mg base/kg, 30 min): 44%
- % inhibition in time (histamine bronchospasm [3]; 0.8 mg base/kg, 45 min): 29%
- % inhibition in time (histamine bronchospasm [3]; 0.8 mg base/kg, 60 min): 23%
- % inhibition in time (histamine bronchospasm [3]; 0.8 mg base/kg, 90 min): 21%
- % inhibition in time (histamine bronchospasm [3]; 2.5 mg base/kg, 1 min): 20%
- % inhibition in time (histamine bronchospasm [3]; 2.5 mg base/kg, 5 min): 73%
- % inhibition in time (histamine bronchospasm [3]; 2.5 mg base/kg, 15 min): 65%
- % inhibition in time (histamine bronchospasm [3]; 2.5 mg base/kg, 30 min): 53%
- % inhibition in time (histamine bronchospasm [3]; 2.5 mg base/kg, 45 min): 44%
- % inhibition in time (histamine bronchospasm [3]; 2.5 mg base/kg, 60 min): 39%
- % inhibition in time (histamine bronchospasm [3]; 2.5 mg base/kg, 90 min): 34%
- % inhibition in time (histamine bronchospasm [3]; 2.5 mg base/kg, 120 min): 30%
- % inhibition in time (histamine bronchospasm [3]; 8 mg base/kg, 1 min): 51%
- % inhibition in time (histamine bronchospasm [3]; 8 mg base/kg, 5 min): 82%
- % inhibition in time (histamine bronchospasm [3]; 8 mg base/kg, 15 min): 82%
- % inhibition in time (histamine bronchospasm [3]; 8 mg base/kg, 30 min): 71%
- % inhibition in time (histamine bronchospasm [3]; 8 mg base/kg, 45 min): 67%
- % inhibition in time (histamine bronchospasm [3]; 8 mg base/kg, 60 min): 65%
- % inhibition in time (histamine bronchospasm [3]; 8 mg base/kg, 90 min): 59%
- % inhibition in time (histamine bronchospasm [3]; 8 mg base/kg, 120 min (n = 9 compound A, n = 8 Salbutamol)): 55%
- minimal effective dose (histamine bronchospasm [3]; Cavia porcellus, read-out: Threshold active dose): 0.25 mg/kg
- Bronchodilator activity (comparison, in words) (histamine bronchospasm [3]; sulphate, dihydrate): more lasting at 8 mg/kg; also recorded: more active than Salbutamol
- % inhibition in time (histamine bronchospasm [4]; 0.025 mg base/kg, 5 min): 48%
- % inhibition in time (histamine bronchospasm [4]; 0.025 mg base/kg, 20 min): 60%
- % inhibition in time (histamine bronchospasm [4]; 0.025 mg base/kg, 35 min): 67%
- % inhibition in time (histamine bronchospasm [4]; 0.025 mg base/kg, 60 min): 63%
- % inhibition in time (histamine bronchospasm [4]; 0.025 mg base/kg, 90 min): 62%
- % inhibition in time (histamine bronchospasm [4]; 0.08 mg base/kg, 5 min): 70%
- % inhibition in time (histamine bronchospasm [4]; 0.08 mg base/kg, 20 min): 78%
- % inhibition in time (histamine bronchospasm [4]; 0.08 mg base/kg, 35 min): 76%
- % inhibition in time (histamine bronchospasm [4]; 0.08 mg base/kg, 60 min): 70%
- % inhibition in time (histamine bronchospasm [4]; 0.08 mg base/kg, 90 min): 60%
- Bronchodilator activity (comparison, in words) (histamine bronchospasm [4]; sulphate, dihydrate): acted more rapidly (inhibition already strong in 5 minutes); also recorded: activity was higher than or equal to that of Salbutamol, is characterised by its great speed of action
- pEC50 (rat uterus preparation; contracting agent acetylcholine): 9.17
- pEC50 (rat uterus preparation; contracting agent serotonine): 8.62
- Activity on the uterus (comparison with Salbutamol) (rat uterus preparation; in vitro, in words): of the same order of that of Salbutamol
- Heart rate, increase ([5]; 1 × 10^-5 mol (maxi for Salbutamol)): +47 beats per min.
- Heart rate, maximum ([5]; 1 × 10^-5 mol): 256 beats per min.
- Heart rate, increase ([5]; 1 × 10^-6 mol (maxi for Compound A)): +49 beats per min.
- Heart rate, maximum ([5]; 1 × 10^-6 mol): 258 beats per min.
- Heart rate, increase ([5]; 1 × 10^-7 mol): +40 beats per min.
- Heart rate, maximum ([5]; 1 × 10^-7 mol): 249 beats per min.
- Emax ([5]; Cavia porcellus, same preparation, at the start of the test, read-out: Maximum as % of the maximum tachycardia obtained with isoprenaline): < 50%
- CE50 and pD2 on heart rate (not calculable) ([5]; in vitro, in words): this low activity prevents calculation of a CE50 and a pD2
- Tachycardiac activity in vitro (comparison with Salbutamol) ([5]; in words, listed as Compound a): only a partial effect, very much less than that of Salbutamol
- Tachycardiac activity in vitro (comparison with Salbutamol) ([5]; in words): increases the rate but the maximum effect is very much less than that of Salbutamol
- Tachycardiac and hypotensive effect (comparison with Salbutamol) ([6]; anesthetised dog, in words): a little less tachycardiac and hypotensive than Salbutamol
- Heart rate, maximum cumulative effect ([6]; artificial respiration, 10 min after 0.08 mg/kg): +20 cpm
- Average aortic pressure, maximum cumulative effect ([6]; artificial respiration, 75 min after 0.08 mg/kg): -26 mmHg
- Heart rate, maximum cumulative effect ([6]; spontaneous respiration, 15 min after 0.08 mg/kg): +17 cpm
- Average aortic pressure, maximum cumulative effect ([6]; spontaneous respiration, 20 min after 0.08 mg/kg): -15 mmHg
- pEC50 (guinea pig trachea; read-out: CD50 before propranolol): 7.15
- pEC50 (guinea pig trachea; propranolol 1.7×10^-8 mol, read-out: CD50 after propranolol): 6.60
- Ratio of CD50 (guinea pig trachea; after / before propranolol): 3.5
